Measured values reported in patent US10201507B2, “Modulators of intracellular chloride concentration for treating fragile X syndrome” (NEUROCHLORE, priority 2012, dated 2019).
Entries after “also recorded” stand apart in the source; their conditions may differ.

Legend:
[1] = system: hippocampal CA3 pyramidal neurons; assay: Whole-cell recordings of spontaneous excitatory postsynaptic currents (sEPSCs) at P15 after maternal pretreatment; type: in vivo, mouse; settings: FXS offspring P15, maternal pretreatment, −70 mV
Method: Standard whole-cell recordings were performed in coronal neocortical rat or mouse brain slices at room temperature (20-22° C.) from the soma of hippocampal CA3 neurons using an EPC-10 (HEKA Elektronik, Germany) amplifier and filtered at 3-10 kHz. The internal solution contained (in mM): 130 K-gluconate, 10 Na-gluconate, 4 NaCl, 4 MgATP, 4 phosphocreatine, 10 HEPES, and 0.3 GTP (pH 7.3 with KOH). Biocytin (final concentration 0.3-0.5%) was added to the pipette solution to label the neurons from which recordings were obtained. Neurons were visualized by using infrared DIC video microscopy. Spontaneous postsynaptic currents were recorded for […] at the reversal potentials for GABAergic currents (-70 mV). […] Stored data were analyzed using the Mini Analysis 6.0.3 (Synaptosoft Inc., […].) and Origin (MicroCal, Northampton, Mass.) software. […] Data are expressed as mean±S.E.M. To test whether depolarizing actions of GABA were associated with neuronal excitation, the effect of the GABAA receptor agonist isoguvacine was tested. […] To test whether maternal treatment with bumetanide before delivery switches the action of GABA from excitatory to inhibitory in offsprings at P15, pregnant females were treated orally 1 day before delivery with bumetanide (2-2.5 mg/kg in drinking water) and juvenile offspring neurons recorded at P15. […]

[2] = system: hippocampal CA3 pyramidal neurons; assay: DFGABA in offspring at P15 after maternal pretreatment; type: in vivo, mouse
Method: Mice lacking Fmr1 (referred to as Fmr1^−/−) were bred in our animal facility. […] For all experiments, Fmr1^−/− mice were used with wild-type littermates as a control group. The offspring were used for experiments at E18, P0, P2, P4, P7, P9, P15 and P30. Experiments were carried out on offspring of either sex and in a blind manner at E18 and P0. Hippocampal slices (300-500 μm thick) were prepared using a Microm tissue slicer (International GmbH, Germany) as described previously (Tyzio et al., 2006, 2008). Slices were kept in oxygenated (95% O2/5% CO2) artificial cerebrospinal fluid (ACSF) of the following composition (in mM): […] For recordings, slices were placed into a conventional fully submerged chamber superfused with ACSF at a rate of 2-3 ml/min at room temperature. Patch clamp recordings from visually identified CA3 pyramidal cells in cell-attached configuration were performed using EPC-10 amplifier (HEKA Elektronik Dr. Schulze GmbH, Lambrecht/Pfalz, Germany). Patch pipette solution for recordings of single GABAA channels contained (in mM): NaCl 120, KCl 5, TEA-Cl 20, 4-aminopyridine 5, CaCl2 0.1, MgCl2 10, glucose 10, Hepes-NaOH 10 buffered to pH 7.2-7.3 and GABA 2 μM. Analysis of currents through single channels and current-voltage relationships were performed using Clampfit 9.2 (Axon Instruments, Union City, Calif.). […]

CA3 pyramidal cells = assay: Single GABAA channel recordings of driving force of GABA (DFGABA) in hippocampal slices, drug applied to slice; type: cell-based, mouse
Method: Mice lacking Fmr1 (referred to as Fmr1^−/−) were bred in our animal facility. […] For all experiments, Fmr1^−/− mice were used with wild-type littermates as a control group. The offspring were used for experiments at E18, P0, P2, P4, P7, P9, P15 and P30. Experiments were carried out on offspring of either sex and in a blind manner at E18 and P0.
Experiments were performed on fetuses and neonatal wild type and Fragile X mice from the embryonic day […] to the postnatal day P38 (term is E21). All of the research was performed in compliance with the national guidelines on human care and use of laboratory animals and approved by INSERM.
Hippocampal slices (300-500 μm thick) were prepared using a Microm tissue slicer (International GmbH, Germany) as described previously (Tyzio et al., 2006, 2008). Slices were kept in oxygenated (95% O2/5% CO2) artificial cerebrospinal fluid (ACSF) of the following composition (in mM): NaCl 126, KCl 3.5, CaCl2 2.0, MgCl2 1.3, NaHCO3 25, NaH2PO4 1.2 and glucose 11 (pH 7.4) at room temperature (20-22° C.) at least 1 hour before use.
For recordings, slices were placed into a conventional fully submerged chamber superfused with ACSF at a rate of 2-3 ml/min at room temperature. Patch clamp recordings from visually identified CA3 pyramidal cells in cell-attached configuration were performed using EPC-10 amplifier (HEKA Elektronik Dr. Schulze GmbH, Lambrecht/Pfalz, Germany). Patch pipette solution for recordings of single GABAA channels contained (in mM): NaCl 120, KCl 5, TEA-Cl 20, 4-aminopyridine 5, CaCl2 0.1, MgCl2 10, glucose 10, Hepes-NaOH 10 buffered to pH 7.2-7.3 and GABA 2 μM. Analysis of currents through single channels and current-voltage relationships were performed using Clampfit 9.2 (Axon Instruments, Union City, Calif.). Recordings were digitized (10 kHz) online with Digidata-1200 interface card (Axon Instruments, Union City, Calif.) and analyzed offline with Axon package, MiniAnalysis (S (Synaptsoft, Decatur, Ga.), and Origin (Microcal Software, Northampton, Mass.). […]

CCCCNc1cc(C(=O)O)cc(S(N)(=O)=O)c1Oc1ccccc1 [bumetanide]
ongoing activity and frequency of glutamatergic sEPSCs (in words) [1]: significantly reduced | average DFGABA ([2]; P15 FXS mice, maternal pretreatment orally 1 day before delivery, 2-2.5 mg/kg in drinking water): 1.0±1.1 mV | Effect on DFGABA in offsprings (in words) ([2]; P15 FXS, maternal pretreatment): restored control DFGABA values | Effect on DFGABA (in words) (CA3 pyramidal cells; FXS neurons at P0 (birth), oxytocin 1 μM): shift it to hyperpolarization; also recorded: fully blocked the depolarising DFGABA | Effect on DFGABA (in words) (CA3 pyramidal cells; wild type pyramidal cells at P0): increases hyperpolarization
